From patent US20210017607A1, “Methods of Predicting Responsiveness to Cancer Therapies” (The University of Chicago, priority 2019, published 2021)

System: single cell suspensions derived from Myc-CAP (STING^lo) tumors
Experiment: Ex vivo reconstitution assay, IFNβ ELISA
Format: cell-based, mouse
Details: for IFNβ production within supernatants: ex vivo drug treatment, 36 hours
Protocol: FIGS. 15A-15E. Differential STING pathway activation within B6-Myc (STING^hi) cell lines and BMDMs relative to Myc-CAP (STING^lo) cells. (15A, 15B) The indicated cancer cell lines and BMDMs were treated with DMXAA (mouse STING agonist) for 1 and 24 hours, respectively, and protein extracts were interrogated for cGAS/STING pathway activation with the indicated antibodies by Western blotting. Supernatants were collected from for IFNβ1 ELISA following 36 hours of treatment with DMXAA (15C, 15D). (15E) Syngeneic Myc-CAP (STING^lo) tumors were processed into single cell suspensions and used for phycoerythrin-based sorting of CD45+ cellular fractions. Equal numbers of cells from these fractions were stimulated with DMXAA. Supernatants were collected at 36 hrs for detection of IFNB1 by ELISA; n=3 independent experiments; Significance/p-values were calculated by one-way Anova (for 15C & 15E) or paired t-test (for 15D); TAM=tumor associated macrophage; s.e.=short exposure; l.e.=long exposure.
FIGS. 29A-29M. PARPi alone induces DNA DSBs, but not apoptosis even in combination with PI3Ki in Myc-CAP (STING^lo) cancer cells; PARPi/PI3Ki combination induces intracellular DNA DSBs and proportionate release of MV surface-associated DNA DSBs from B6-Myc (STINGhi) cancer cells without affecting cellular viability; PARPi/PI3K treatment activates tumor-cell extrinsic cGAS/STING pathway within TAMs in vivo via MV surface-associated DNA DSBs released from tumor cells. Myc-CAP cancer cells were treated with the indicated drugs singly or in combination for 36 hours. (29A) Cells were stained with anti-mouse specific p-γH2AX antibody and a fluorescently labeled secondary antibody for determination of DNA DSBs, which were quantified by confocal microscopy. (29B) Protein extracts from cells in 29A were analyzed for the indicated pharmacodynamic biomarkers by western blotting; (29C) Annexin V-PI staining was done to assess frequency of live cells (Annexin V^− PI^−) following drug treatment. (29D) Ultracentrifugation was utilized to purify microvesicles (MVs) from supernatants in treatment groups in (29A) and associated DNA DSBs was quantified by Nanodrop®. Independent experiments n=2. (29E) Ultracentrifugation was utilized to purify MVs from supernatants in indicated treatment groups in FIG. 17A, and associated DNA DSBs were quantified by Nanodrop®; n=2 independent experiments. (29F) Syngeneic mice were engrafted with Myc-CAP (STING^lo) cells, and tumors were harvested when the tumor volume reached 400 mm^3. Single cell suspensions of the tumors were treated with the indicated drug(s), in the presence or absence of GW4869 (MV biogenesis inhibitor). (29G) Bone marrow derived macrophage (BMDMs) were co-cultured for 30 hours with supernatants (−/+ exogenous 50 units of DNase I pre-treatment for 30 minutes) from Myc-CAP cells that were treated with the indicated drug(s) for 36 hours. (29H) cGAMP (10 μg/mL) was pre-incubated with 10 units of DNAse I or mock control for 30 minutes and then added to BMDMs for 30 hours. (29I-29L) STING^+/+/STING^−/− BMDMs were co-cultured for 36 hours with supernatants from Myc-CAP and B6-Myc cancer cells that were treated with the indicated drug(s) for 36 hours. Supernatants were collected from 29F-29L at the end of treatment and analyzed for IFNβ1 by ELISA. […] Tumor volume was recorded daily for duration of experiment. […] Significance/p-values were calculated by one-way ANOVA. […]

Row | Compound | IFNβ production within supernatants | IFN-β response within the CD45-negative tumor cell fraction (ex vivo DMXAA treatment) | fold increase in IFN-β levels within the TME (ex vivo DMXAA treatment) [fold]
1 | Nc1cc(C(F)(F)F)c(-c2cc(N3CCOCC3)nc(N3CCOCC3)n2)cn1 [buparlisib] | not observed |  | 
2 | CNCc1ccc(-c2[nH]c3cc(F)cc4c3c2CCNC4=O)cc1 [rucaparib] | not observed |  | 
3 | Cc1ccc2c(=O)c3cccc(CC(=O)O)c3oc2c1C [DMXAA, 5,6-Dimethylxanthenone-4-acetic Acid] |  | lack of response | 11.4
